Patent publication US20260250320A1, “LIPIDATED PEPTIDE INHIBITORS OF INTERLEUKIN-23 RECEPTOR” (Janssen Pharmaceutica NV, priority 2023, published 2026)
*1 amine or outer side, *2 acyl side, *3 side chain or, on linkers, in order; H or OH if unused. Where a SMILES comes first, the peptide text is derived from it. Bridges are numbered along the chain shown (N, C = ends). Side-chain parts run from the residue outwards. [ ]: non-standard residue; d: D form. The star is where a group is joined. ξ: configuration not given here. X33 = C[N+](C)(CCNC(=O)CCOCCOCCOCCOCCOCCOCCOCCOCCOCCOCCOCCOCCNC(=O)CC[C@H](CC(=O)CCCCCCCCCCCCCCCCC(=O)O)C(=O)O)CC(=O)*; X32 = O=C(O)CCCCCCCCCCCCCCCCC(=O)N[C@@H](CCC(=O)NCCOCCOCCOCCOCCOCCOCCOCCOCCOCCOCCOCCCOCCC(=O)*)C(=O)O; X39 = O=C(O)CCCCCCCCCCCCCCCCC(=O)NC(CCC(=O)NCCCCCOCC(=O)*)C(=O)O; Me3N+(CH2)2O(CH2)2O(CH2)2CO = C[N+](C)(C)CCOCCOCCC(=O)*; Trp(7-Me) = Cc1cccc2c(C[C@H](N)C(=O)O)c[nH]c12; C18 diacid = O=C(O)CCCCCCCCCCCCCCCCC(=O)*; γGlu = O=C(O)[C@H](CCC(=O)[*:2])N[*:1]; 2Nal = N[C@@H](Cc1ccc2ccccc2c1)C(=O)O; AEF = NCCOc1ccc(C[C@H](N)C(=O)O)cc1; X2 = C[N+](C)(C)C[C@@H](CC(=O)O)N*; 3Pal = N[C@@H](Cc1cccnc1)C(=O)O; Lys(Me) = CNCCCC[C@H](N)C(=O)O; NMeK = CN[C@@H](CCCCN)C(=O)O; Pen = CC(C)(S)[C@H](N)C(=O)O; Suc = O=C(CCC(=O)[*:2])[*:1]; ξ3Pal = NC(Cc1cccnc1)C(=O)O; Ac6c = NC1(C(=O)O)CCCCC1; Thp = NC1(C(=O)O)CCOCC1; X1 = C[N+](C)(C)CCCCC*; AEEA = NCCOCCOCC(=O)O; Sar = CNCC(=O)O

What was measured:
IL-23R = target: T1, IL-23R (Homo sapiens, UniProt Q5VWK5); experiment: IL23R Reporter Assay; format: cell-based; conditions: HEK293 cells containing IL-23R, IL-12Rβ1 and STAT-inducible firefly luciferase reporter; 10 ng/mL IL-23 (EC90); 5 h
T1 construct: HEK293 cells containing IL-23R, IL-12Rβ1 and a firefly luciferase reporter gene driven by a STAT-inducible promoter (Promega); host or cells: HEK293
T1 sequence (Q5VWK5 24-629): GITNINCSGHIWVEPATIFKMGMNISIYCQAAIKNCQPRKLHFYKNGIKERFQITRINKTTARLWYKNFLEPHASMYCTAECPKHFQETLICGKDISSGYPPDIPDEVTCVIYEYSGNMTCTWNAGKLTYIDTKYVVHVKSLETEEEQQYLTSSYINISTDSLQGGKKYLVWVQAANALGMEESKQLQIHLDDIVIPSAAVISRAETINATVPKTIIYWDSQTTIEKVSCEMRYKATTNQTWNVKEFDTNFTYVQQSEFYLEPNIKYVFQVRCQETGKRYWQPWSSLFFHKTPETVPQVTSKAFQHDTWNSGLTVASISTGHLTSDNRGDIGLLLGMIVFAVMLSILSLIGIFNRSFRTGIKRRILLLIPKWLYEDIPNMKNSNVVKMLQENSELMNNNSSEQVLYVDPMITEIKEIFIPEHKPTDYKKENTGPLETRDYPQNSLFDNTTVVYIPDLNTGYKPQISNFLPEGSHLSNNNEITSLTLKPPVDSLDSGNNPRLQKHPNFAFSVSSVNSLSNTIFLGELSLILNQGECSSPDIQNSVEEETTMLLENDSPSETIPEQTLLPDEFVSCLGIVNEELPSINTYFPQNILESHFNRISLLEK
Outline: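 IC50 values were fitted with a 4-parameter Hill equation to luciferase signal, scaled between IL-23-only wells (0% inhibition) and 30 μM reference inhibitor (100%). The readout was a STAT-inducible reporter in IL-23R/IL-12Rβ1 HEK293 cells, stimulated with added 10 ng/mL IL-23 (EC90) for 5 h at 37° C and developed with BioGlo.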

[1] = tested on: IL-23-stimulated phosphorylated STAT3 in peripheral blood mononuclear cells (PBMCs); experiment: PBMC pSTAT3 Assay; format: cell-based; conditions: PBMCs from healthy donors; 30 min preincubation with peptide; IL-23 5 ng/mL for 30 min; phospho-STAT3 by MSD
Outline: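 Phospho-STAT3 quantified by Meso Scale assay in lysates of PBMCs exposed to IL-23 (5 ng/mL, 30 min, 37 °C) after 30 min peptide pretreatment. Cells were cryopreserved donor PBMCs activated 4 days with anti-CD3 plus IL-1β (100 ng/mL) and starved ~4 h; IC50 reported.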

SMILES | IC50 (IL-23R) | IC50 [1]
CC(=O)NCCCC[C@@H]1NC(=O)[C@H](Cc2c[nH]c3c(C)cccc23)NC(=O)[C@H]([C@@H](C)O)NC(=O)[C@H](CC(N)=O)NC(=O)[C@@H](NC(=O)[C@@H](CCCNC(=N)N)NC(C)=O)C(C)(C)SSC(C)(C)[C@@H](C(=O)N[C@@H](Cc2ccc(OCCN)cc2)C(=O)N[C@@H](Cc2ccc3ccccc3c2)C(=O)NC2(C(=O)N[C@@H](CCCCNC(=O)CCC(=O)N[C@H](CC(=O)O)C[N+](C)(C)C)C(=O)N[C@@H](CC(N)=O)C(=O)N[C@@H](Cc3cccnc3)C(=O)N(C)[C@@H](CCCCNC(=O)COCCOCCNC(=O)COCCCCCNC(=O)CCC(NC(=O)CCCCCCCCCCCCCCCCC(=O)O)C(=O)O)C(N)=O)CCOCC2)NC1=O (some centres unmarked) [compound 41, MeCO-r-Pen(3)-N-T-7MeW-K(Ac)-Pen(3)-AEF-2Nal-THP-K(d)-N-3Pya-NMeK(PEG2PEG2gEC18OH)-CONH2] (Ac-[dR][Pen]NT[Trp(7-Me)]K(Ac)[Pen][AEF][2Nal][Thp]K([Suc-X2])N[3Pal][NMeK]([AEEA-X39])-NH2; disulfide 2-7) | 50 to 500 nM | < 0.5 nM
CC(=O)NCCCC[C@@H]1NC(=O)[C@H](Cc2c[nH]c3c(C)cccc23)NC(=O)[C@H]([C@@H](C)O)NC(=O)[C@H](CC(N)=O)NC(=O)[C@@H](NC(=O)[C@@H](CCCNC(=N)N)NC(C)=O)C(C)(C)SSC(C)(C)[C@@H](C(=O)N[C@@H](Cc2ccc(OCCN)cc2)C(=O)N[C@@H](Cc2ccc3ccccc3c2)C(=O)NC2(C(=O)N[C@@H](CCC(=O)O)C(=O)N[C@@H](CC(N)=O)C(=O)N[C@@H](Cc3cccnc3)C(=O)N(C)CC(=O)N[C@@H](CCCCNC(=O)CCOCCCOCCOCCOCCOCCOCCOCCOCCOCCOCCOCCOCCNC(=O)CC[C@H](NC(=O)CCCCCCCCCCCCCCCCC(=O)O)C(=O)O)C(N)=O)CCOCC2)NC1=O [compound 133, MeCO-r-Pen(3)-N-T-7MeW-K(Ac)-Pen(3)-AEF-2Nal-THP-E-N-3Pya-Sar-K(PEG12gEC18OH)-CONH2] (Ac-[dR][Pen]NT[Trp(7-Me)]K(Ac)[Pen][AEF][2Nal][Thp]EN[3Pal][Sar]K(X32)-NH2; disulfide 2-7) | < 50 nM | < 0.5 nM
CC(=O)N(C)CCCC[C@@H]1NC(=O)[C@H](Cc2c[nH]c3c(C)cccc23)NC(=O)[C@H]([C@@H](C)O)NC(=O)[C@H](CC(=O)N(C)C)NC(=O)[C@@H](NC(=O)CCOCCOCC[N+](C)(C)C)C(C)(C)SSC(C)(C)[C@@H](C(=O)N[C@@H](Cc2ccc(OCCNC(=O)C[N+](C)(C)CCNC(=O)CCOCCOCCOCCOCCOCCOCCOCCOCCOCCOCCOCCOCCNC(=O)CC[C@H](CC(=O)CCCCCCCCCCCCCCCCC(=O)O)C(=O)O)cc2)C(=O)N[C@@H](Cc2ccc3ccccc3c2)C(=O)NC2(C(=O)N[C@@H](CCCCN(C)C(C)=O)C(=O)N[C@@H](CC(N)=O)C(=O)NC(Cc3cccnc3)C(=O)N(C)CC(=O)N(C)C)CCCCC2)NC1=O (stereo partly drawn) [compound 141, cPEG3aCO-Pen(3)-N(N(Me)2)-T-7MeW-K(NMeAc)-Pen(3)-AEF(SP6PEG12gEC18OH)-2Nal-THP-K(NMeAc)-N-3Pya-Sar-CON(Me)2] ({Me3N+(CH2)2O(CH2)2O(CH2)2CO}-[Pen]D(NMe2)T[Trp(7-Me)][Lys(Me)](Ac)[Pen][AEF](X33)[2Nal][Ac6c][Lys(Me)](Ac)N[ξ3Pal][Sar]-NMe2; disulfide 1-6) | < 50 nM | < 0.5 nM
CC(=O)N(C)CCCC[C@@H]1NC(=O)[C@H](Cc2c[nH]c3c(C)cccc23)NC(=O)[C@H]([C@@H](C)O)NC(=O)[C@H](CC(=O)N(C)C)NC(=O)[C@@H](NC(=O)CCOCCOCC[N+](C)(C)C)C(C)(C)SSC(C)(C)[C@@H](C(=O)N[C@@H](Cc2ccc(OCCCCC[N+](C)(C)C)cc2)C(=O)N[C@@H](Cc2ccc3ccccc3c2)C(=O)NC2(C(=O)N[C@@H](CCCCNC(=O)COCCOCCNC(=O)COCCOCCNC(=O)CC[C@H](NC(=O)CCCCCCCCCCCCCCCCC(=O)O)C(=O)O)C(=O)N[C@@H](CC(N)=O)C(=O)N[C@@H](Cc3ccccc3)C(=O)N(C)CC(=O)N(C)C)CCOCC2)NC1=O [compound 120, cPEG3aCO-Pen(3)-N(N(Me)2)-T-7MeW-K(NMeAc)-Pen(3)-TMAPF-2Nal-THP-K(PEG2PEG2gEC18OH)-N-3Pya-Sar-CON(Me)2] ({Me3N+(CH2)2O(CH2)2O(CH2)2CO}-[Pen]D(NMe2)T[Trp(7-Me)][Lys(Me)](Ac)[Pen]Y(X1)[2Nal][Thp]K([AEEA-AEEA-γGlu-C18 diacid])NF[Sar]-NMe2; disulfide 1-6) | < 50 nM | < 0.5 nM
